Measurements: patent US9586956B2, “Isoquinoline and naphthyridine derivatives” (Genentech, Inc., priority 2012, dated 2017)

What follows are compounds tested against T1, purified human MAP4K4 kinase domain (Homo sapiens, UniProt O95819) (assay: MAP4K4 Inhibition Assay Protocol No. 1 (Caliper LabChip, moesin-derived peptide phosphorylation)). Details: Assay 1; 1 nM enzyme, 10 uM ATP, 45 min.
T1 construct: purified human MAP4K4 kinase domain
Assay type: biochemical
Outline: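 1 nM enzyme with 1 uM 5-carboxyfluorescein-labelled moesin peptide and 10 uM ATP in 50 mM Hepes pH 7.2, 10 mM MgCl2, 2% DMSO, 45 min at room temperature, then EDTA stop. Phosphorylated fraction of peptide measured by microfluidic mobility shift; IC50 from four-parameter fit.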

T1 sequence (O95819 25-289 limits assumed): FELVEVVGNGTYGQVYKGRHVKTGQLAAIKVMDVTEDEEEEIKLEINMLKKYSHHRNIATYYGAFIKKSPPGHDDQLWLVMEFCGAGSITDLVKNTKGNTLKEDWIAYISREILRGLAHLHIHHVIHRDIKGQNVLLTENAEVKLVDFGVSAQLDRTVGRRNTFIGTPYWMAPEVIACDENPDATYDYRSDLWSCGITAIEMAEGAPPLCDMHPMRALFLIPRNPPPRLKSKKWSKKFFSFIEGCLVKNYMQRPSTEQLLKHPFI

| Compound | IC50 [µM] |
| --- | --- |
| Cc1cnc(CNC(=O)c2cnc(N)c3cc(-c4cccc(F)c4)ccc23)cn1 [Example 104, 1-amino-7-(3-fluorophenyl)-N-[(5-methylpyrazin-2-yl)methyl]isoquinoline-4-carboxamide] | 0.0909 |
| Cc1ncccc1NC(=O)c1cnc(N)c2cc(-c3cccc(F)c3)ccc12 [Example 105, 1-amino-7-(3-fluorophenyl)-N-(2-methyl-3-pyridyl) isoquinoline-4-carboxamide] | 0.0377 |
| Nc1ncc(C(=O)Nc2ccncc2)c2ccc(-c3cccc(F)c3)cc12 [Example 106, 1-amino-7-(3-fluorophenyl)-N-(4-pyridyl)isoquinoline-4-carboxamide] | 0.0224 |
| Nc1ncc(C(=O)NCCC(=O)N2CCOCC2)c2ccc(-c3cccc(F)c3)cc12 [Example 110, 1-amino-7-(3-fluorophenyl)-N-(3-morpholino-3-oxo-propyl)isoquinoline-4-carboxamide] | 0.403 |
| Cc1cncc(NC(=O)c2cnc(N)c3cc(-c4cccc(F)c4)ccc23)c1 [Example 116, 1-amino-7-(3-fluorophenyl)-N-(5-methyl-3-pyridyl) isoquinoline-4-carboxamide] | 0.114 |
| Cc1ncc(NC(=O)c2cnc(N)c3cc(-c4cccc(F)c4)ccc23)cn1 [Example 117, 1-amino-7-(3-fluorophenyl)-N-(2-methylpyrimidin-5-yl)isoquinoline-4-carboxamide] | 0.07 |
| CCC(=O)N1CC(NC(=O)c2cnc(N)c3cc(-c4cccc(F)c4)ccc23)C1 [Example 125, 1-amino-7-(3-fluorophenyl)-N-(1-propanoylazetidin-3-yl)isoquinoline-4-carboxamide] | 0.0503 |

Next, values leading:

| IC50 [µM] | Compound |
| --- | --- |
| 0.0124 | Nc1ncc(C(=O)Nc2cccnc2)c2ccc(-c3cccc(F)c3)cc12 [Example 107, 1-amino-7-(3-fluorophenyl)-N-(3-pyridyl)isoquinoline-4-carboxamide] |
| 0.0156 | Nc1ncc(C(=O)NC2CC2)c2ccc(-c3cccc(F)c3)cc12 [Example 108, 1-amino-N-cyclopropyl-7-(3-fluorophenyl) isoquinoline-4-carboxamide] |
| 0.0774 | Nc1ncc(C(=O)NCCO)c2ccc(-c3cccc(F)c3)cc12 [Example 109, 1-amino-7-(3-fluorophenyl)-N-(2-hydroxyethyl) isoquinoline-4-carboxamide] |
| 0.0441 | N#CCNC(=O)c1cnc(N)c2cc(-c3cccc(F)c3)ccc12 [Example 111, 1-amino-N-(cyanomethyl)-7-(3-fluorophenyl) isoquinoline-4-carboxamide] |
| 0.0731 | Nc1ncc(C(=O)NC2CCOC2)c2ccc(-c3cccc(F)c3)cc12 (centres unmarked) [Example 112, 1-amino-7-(3-fluorophenyl)-N-tetrahydrofuran-3-yl-isoquinoline-4-carboxamide] |
| 0.0386 | Nc1ncc(C(=O)NC(CO)CO)c2ccc(-c3cccc(F)c3)cc12 [Example 114, 1-amino-7-(3-fluorophenyl)-N-[2-hydroxy-1-(hydroxy-methyl)ethyl]isoquinoline-4-carboxamide] |
| 0.0454 | Nc1ncc(C(=O)NC2COC2)c2ccc(-c3cccc(F)c3)cc12 [Example 115, 1-amino-7-(3-fluorophenyl)-N-(oxetan-3-yl)isoquinoline-4-carboxamide] |
| 0.0996 | CC(O)CNC(=O)c1cnc(N)c2cc(-c3cccc(F)c3)ccc12 (centres unmarked) [Example 119, 1-amino-7-(3-fluorophenyl)-N-(2-hydroxypropyl) isoquinoline-4-carboxamide] |
| 2.1 | Nc1ncc(C(=O)O)c2ccc(-c3cccc(F)c3)cc12 [Example 123, 1-amino-7-(3-fluorophenyl) isoquinoline-4-carboxylic acid] |
| 0.4 | Nc1ncc(C(=O)NC2CNC2)c2ccc(-c3cccc(F)c3)cc12 [Example 124, 1-amino-N-(azetidin-3-yl)-7-(3-fluorophenyl) isoquinoline-4-carboxamide] |
